Experimental data reported in patent US9656949B2, “Substituted carboxylic acid derivatives as aggrecanase inhibitors for the treatment of osteoarthritis” (MERCK PATENT GMBH, priority 2013, dated 2017).
In brackets after ≈: the same amount, converted by molar mass.

Columns and labels:
Solubility pH7.4 = type: physicochemical; conditions: pH 7.4, aqueous buffer
[1] = molecular target: T1, human recombinant AdamTS-5 (Homo sapiens, UniProt Q9UNA0); assay: Biochemical activity testing of ADAMTS-5: aggrecan peptide cleavage assay (AlphaScreen); conditions: 4.5 nM human recombinant AdamTS-5, biotinylated 43mer aggrecan peptide, 180 min at 37° C.; read-out: IC50 [ADAM-NTS5]M
T1 construct: purchased R&D systems, Wiesbaden, Germany
T1 sequence (Q9UNA0 262-930): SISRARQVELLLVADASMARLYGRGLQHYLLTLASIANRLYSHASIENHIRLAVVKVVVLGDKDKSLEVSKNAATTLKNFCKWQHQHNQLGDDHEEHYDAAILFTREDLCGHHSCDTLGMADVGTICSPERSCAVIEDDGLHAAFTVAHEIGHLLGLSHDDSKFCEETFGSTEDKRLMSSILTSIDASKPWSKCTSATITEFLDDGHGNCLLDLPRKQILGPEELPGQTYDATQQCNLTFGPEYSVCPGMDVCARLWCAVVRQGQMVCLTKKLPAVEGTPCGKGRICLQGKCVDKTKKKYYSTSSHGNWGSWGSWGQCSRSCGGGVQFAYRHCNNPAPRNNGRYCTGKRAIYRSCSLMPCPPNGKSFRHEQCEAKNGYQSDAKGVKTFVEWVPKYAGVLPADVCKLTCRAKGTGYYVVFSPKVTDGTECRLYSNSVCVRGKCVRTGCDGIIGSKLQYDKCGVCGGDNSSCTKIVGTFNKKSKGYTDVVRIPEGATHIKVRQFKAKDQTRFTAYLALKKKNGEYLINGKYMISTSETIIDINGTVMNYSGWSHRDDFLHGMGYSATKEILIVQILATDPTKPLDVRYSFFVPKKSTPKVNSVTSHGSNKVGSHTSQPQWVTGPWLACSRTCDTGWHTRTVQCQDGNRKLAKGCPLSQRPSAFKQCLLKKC
Description: ADAMTS-5 is a metallo protease with glutamyl-endoprotease activity and cleaves aggrecan core protein at E373-A374 in the interglobular domain. To fully analyse the inhibitory potential of compounds on AdamTS-5 activity an Alphascreen® assay with a biotinylated 43mer aggrecan oligopeptide as substrate was performed. Cleavage by ADAMTS-5 caused production of a neoepitop N-terminus ARGS at the C-terminal fragment. The detection of this product is performed with streptavidin-AlphaScreen® donor beads binding to the biotin label and an anti-neoepitop (“ARGSV”) antibody that anchors anti-mouse IgG-coated AlphaLisa® acceptor beads to the other end of the generated fragment. Thereby, donor and acceptor beads get in proximity and a luminescence Alphascreen® signal is generated via the release of singlet oxygen. The cleavage activity was detectable directly by the increase in Alphascreen® signal.
The aggrecan peptide cleavage assay was performed as 384 well AlphaScreen® (Perkin Elmer) assay format in Perkin Elmer 384 AlphaPlate (proxiplate) shallow well microtiter plates and was used for high throughput screen in a total assay volume of 10 μl. 4.5 nM human recombinant AdamTS-5 (R&D systems, Wiesbaden, Germany) and 30 nM biotinylated peptide […]-K(bio) (custom-made, Biosynthan, Berlin, Germany) as substrate were incubated in a total volume of 6 μl (100 mM Tris/HCl, 150 mM NaCl, 10 mM CaCl2, 0.05% Brij®-35, 1% DMSO, 0.084% BSA, pH 7.5) in the absence or presence of the test compound (10 dilution concentrations) for 180 min at 37° C. The reaction was stopped and the first detection step performed by the addition of 2 μl detection solution 1 (48 mM EDTA, 8 nM aggrecan antibody N-term neoepitope ARG, mouse monoclonal BC3 antibody (MDBioproducts, Egg, Switzerland), 100 μg/ml Streptavidin Alphascreen® donor beads (Perkin Elmer, Rodgau, Germany) in 100 mM Tris/HCl, 150 mM NaCl, 0.05% Brij®-35, 0.1% BSA, pH 7.5). After an one-hour incubation at 37° C. 2 μl of the second detection solution (25 μg/ml anti-mouse AlphaLisa® acceptor beads (Perkin Elmer, Rodgau, Germany) in 100 mM Tris/HCl, 150 mM NaCl, 0.05% Brij®-35, 0.1% BSA, pH 7.5 were added. The plates were incubated for […] in the dark.
The AlphaScreen signal was measured with an Envision multimode reader (Perkin Elmer LAS Germany GmbH) with the Alphascreen protocol from Perkin Elmer (laser mode) emission wavelength 570 nm. The full value used was the inhibitor-free reaction. For the zero value a pharmacological reference was used. The inhibitory values (IC50) for the compounds were determined using either the program Symyx Assay Explorer® or Condosseo® from GeneData.

| SMILES | solubility (Solubility pH7.4) [µg/mL] | IC50 [1] [nM] |
| --- | --- | --- |
| C[C@@H](C[C@H](NC(=O)c1ncc(-c2ccc(F)cc2)s1)C(=O)NC(C)(C)Cc1ccc(F)cc1)C(=O)O [Compound 2, (2S,4S)-4-[2-(4-Fluoro-phenyl)-1,1-dimethyl-ethylcarbamoyl]-4-{[5-(4-fluoro-phenyl)-thiazole-2-carbonyl]-amino}-2-methyl-butyric acid] | 912 (≈ 1770 µM) | 47 |
| C[C@@H](C[C@H](NC(=O)c1cnc(-c2ccc(F)cc2)s1)C(=O)NC(C)(C)Cc1ccc(F)cc1)C(=O)O [Compound 20, (2S,4S)-4-[2-(4-Fluoro-phenyl)-1,1-dimethyl-ethylcarbamoyl]-4-{[2-(4-fluoro-phenyl)-thiazole-5-carbonyl]-amino}-2-methyl-butyric acid] | 493 (≈ 956 µM) | 1400 |
| C[C@@H](C[C@H](NC(=O)c1ccc(-c2ccccn2)cc1)C(=O)NC(C)(C)Cc1ccc(F)cc1)C(=O)O [Compound 10, (2S,4S)-4-[2-(4-Fluoro-phenyl)-1,1-dimethyl-ethylcarbamoyl]-2-methyl-4-(4-pyridin-2-yl-benzoylamino)-butyric acid] | 883 (≈ 1800 µM) | 190 |
| C[C@@H](C[C@H](NC(=O)c1ccc(-c2ccccc2)nc1)C(=O)NC(C)(C)Cc1ccc(F)cc1)C(=O)O [Compound 14, (2S,4S)-4-[2-(4-Fluoro-phenyl)-1,1-dimethyl-ethylcarbamoyl]-2-methyl-4-[(6-phenyl-pyridine-3-carbonyl)-amino]-butyric acid] | 775 (≈ 1580 µM) | 350 |
| CC(C)(Cc1ccc(F)cc1)NC(=O)[C@H](C[C@H](Cc1ccccc1)C(=O)O)NC(=O)c1ccc(-c2ccccc2)cc1 [Compound 6, (2S,4S)-2-Benzyl-4-[(biphenyl-4-carbonyl)-amino]-4-[2-(4-fluoro-phenyl)-1,1-dimethyl-ethylcarbamoyl]-butyric acid] | 60 (≈ 106 µM) | 150 |
| C[C@@H](Cc1ccc(F)cc1)NC(=O)[C@H](C[C@H](C)C(=O)O)NC(=O)c1ccc(-c2ccccc2)cc1 (single isomer, unassigned) [Compound 3] | 159 (≈ 334 µM) | 62 |
| C[C@@H](C[C@H](NC(=O)c1ccc(-c2ccccc2)cn1)C(=O)NC(C)(C)Cc1ccc(F)cc1)C(=O)O [Compound 13, 4-[2-(4-Fluoro-phenyl)-1,1-dimethyl-ethylcarbamoyl]-2-methyl-4-[(5-phenyl-pyridine-2-carbonyl)-amino]-butyric acid] | 855 (≈ 1740 µM) | 330 |
| C[C@@H](C[C@H](NC(=O)C1CCN(c2ccc(F)cc2)CC1)C(=O)NC(C)(C)Cc1ccc(F)cc1)C(=O)O [Compound 12, (2S,4S)-4-[2-(4-Fluoro-phenyl)-1,1-dimethyl-ethylcarbamoyl]-4-{[1-(4-fluoro-phenyl)-piperidine-4-carbonyl]-amino}-2-methyl-butyric acid] | 743 (≈ 1440 µM) | 320 |
| CC(Cc1ccc(F)cc1)NC(=O)[C@H](C[C@H](C)C(=O)O)NC(=O)c1ccc(-c2ccccc2)cc1 (single isomer, unassigned) [Compound 17] | 303 (≈ 636 µM) | 530 |
| C[C@@H](C[C@H](NC(=O)c1ccc(-c2ccn(C)n2)cc1)C(=O)NC(C)(C)Cc1ccc(F)cc1)C(=O)O [Compound 9, (2S,4S)-4-[2-(4-Fluoro-phenyl)-1,1-dimethyl-ethylcarbamoyl]-2-methyl-4-[4-(1-methyl-1H-pyrazol-3-yl)-benzoylamino]-butyric acid] | 798 (≈ 1610 µM) | 180 |
| C[C@@H](C[C@H](NC(=O)N1CCN(c2ccccc2)CC1)C(=O)NC(C)(C)Cc1ccc(F)cc1)C(=O)O [Compound 15, (2S,4S)-4-[2-(4-Fluoro-phenyl)-1,1-dimethyl-ethylcarbamoyl]-2-methyl-4-[(4-phenyl-piperazine-1-carbonyl)-amino]-butyric acid] | 924 (≈ 1850 µM) | 360 |
| C[C@@H](C[C@H](NC(=O)c1ccc(-c2ccccc2)cc1F)C(=O)NC(C)(C)Cc1ccc(F)cc1)C(=O)O [Compound 11, (2S,4S)-4-[(3-Fluoro-biphenyl-4-carbonyl)-amino]-4-[2-(4-fluoro-phenyl)-1,1-dimethyl-ethylcarbamoyl]-2-methyl-butyric acid] | 648 (≈ 1270 µM) | 250 |
| C[C@@H](C[C@H](NC(=O)c1ccc(-c2ccccc2)cc1)C(=O)NC(C)(C)Cc1cccnc1)C(=O)O [Compound 4, (2S,4S)-4-[(Biphenyl-4-carbonyl)-amino]-4-(1,1-dimethyl-2-pyridin-3-yl-ethylcarbamoyl)-2-methyl-butyric acid] |  | 66 |
| C[C@@H](C[C@H](NC(=O)c1ccc(-c2cccnc2)cc1)C(=O)NC(C)(C)Cc1ccc(F)cc1)C(=O)O [Compound 16, (2S,4S)-4-[2-(4-Fluoro-phenyl)-1,1-dimethyl-ethylcarbamoyl]-2-methyl-4-(4-pyridin-3-yl-benzoylamino)-butyric acid] | 365 (≈ 743 µM) | 390 |
| COc1cc(CNC(=O)[C@H](CC(C)C(=O)O)NC(=O)c2ccc(-c3ccccc3)cc2)cc(OC)c1OC (mixture of isomers) [Compound 1, 4-[(Biphenyl-4-carbonyl)-amino]-2-methyl-4-(3,4,5-trimethoxy-benzylcarbamoyl)-butyric acid] | 850 | 13 |
| Cc1cnc(-c2ccc(C(=O)N[C@@H](C[C@H](C)C(=O)O)C(=O)NC(C)(C)Cc3ccc(F)cc3)cc2)s1 [Compound 19, (2S,4S)-4-[2-(4-Fluoro-phenyl)-1,1-dimethyl-ethylcarbamoyl]-2-methyl-4-[4-(5-methyl-thiazol-2-yl)-benzoylamino]-butyric acid] | 637 (≈ 1250 µM) | 1200 |
| C[C@@H](C[C@H](NC(=O)N1CCC(c2ccccc2)CC1)C(=O)NC(C)(C)Cc1ccc(F)cc1)C(=O)O [Compound 18, (2S,4S)-4-[2-(4-Fluoro-phenyl)-1,1-dimethyl-ethylcarbamoyl]-2-methyl-4-[(4-phenyl-piperidine-1-carbonyl)-amino]-butyric acid] | 805 (≈ 1620 µM) | 1200 |
